Test results published in patent US4738954A, “Novel N^6 -substituted-5'-oxidized adenosine analogs” (Warner-Lambert Company, priority 1985, dated 1988).

How the values were obtained:
Assay type in all cases: cell-based, human (Community Research Clinic volunteers)
[1] = system: platelets (collagen-induced aggregation); assay: Antithrombocyte aggregation test in vitro (ATA-8), collagen-induced, platelet rich plasma; settings: Homo sapiens
Experimental: (§1) ANTITHROMBOCYTE AGGREGATION TEST-IN VITRO (ATA-8)
Source and Preparation of Platelet Suspensions
Blood is collected from Community Research Clinic volunteers who have not ingested aspirin or other non-steroidol antiinflammatory drugs within the preceeding two weeks and have not eaten within the nine hours before blood draw. Blood is taken in 4.5 ml portions in Vacutainer No. 6462S silicone-coated tubes or equivalent containing 0.5 ml of 3.8% trisodium citrate. Usually six or eight portions of 4.5 ml are drawn from each volunteer. The blood collected from three or four volunteers is pooled prior to centrifugation. […] The platelet count of the PRP is determined with a Coulter Thromobocounter. […]
Platelet-rich plasma adjusted to 250,000 platelets per microliter is distributed in 0.36 ml aliquots into silicone-coated cuvettes of 0.312 inch diameter. […] Extent of aggregation, using ADP stimulus, or rate of aggregation, using collagen stimulus, is determined using the Payton Scientific Dual Channel Aggregation Module, Model 300B. Appropriate concentrations of ADP or collagen are determined by an initial brief titration. […]
(§2) The major slope (that is, the slope of the first straight line portion) of the collagen-induced aggregation curve for each drug concentration is determined and compared to the slope of the curve for control aggregations. […]

[2] = system: platelets (ADP-induced aggregation); assay: Antithrombocyte aggregation test in vitro (ATA-8), ADP-induced, whole blood; settings: Homo sapiens, Platelet
Experimental: as §1
Blood is collected from Community Research Clinic volunteers who have not ingested aspirin or other non-steroidol antiinflammatory drugs within the preceeding two weeks and have not eaten within the nine hours before blood draw. Blood is taken in 4.5 ml portions in Vacutainer No. 6462S silicone-coated tubes or equivalent containing 0.5 ml of 3.8% trisodium citrate. Usually six or eight portions of 4.5 ml are drawn from each volunteer. […] The pooled blood is put in 50 ml polyethylene tubes and centrifuged at 80×g (ca 600 rpm) for 20 min in an International Model K centrifuge at room temperature. […]
(§3) Addition of drug solution or saline (0.02 ml) is followed in 5 min by addition of aggregating agent (ADP or collagen suspension, 0.02 ml). Extent of aggregation, using ADP stimulus, or rate of aggregation, using collagen stimulus, is determined using the Payton Scientific Dual Channel Aggregation Module, Model 300B. Appropriate concentrations of ADP or collagen are determined by an initial brief titration.
The height in millimeters of aggregation curves for control aggregations (no drug addition, saline only) are compared with the heights of curves obtained after drug addition at various appropriate concentrations. Heights after drug addition are finally expressed as "percent of control" values. […]

[3] = system: platelets (collagen-induced aggregation); assay: Antithrombocyte aggregation test in vitro (ATA-8), collagen-induced, whole blood; settings: Homo sapiens, Platelet
Experimental: as §1
Blood is collected from Community Research Clinic volunteers who have not ingested aspirin or other non-steroidol antiinflammatory drugs within the preceeding two weeks and have not eaten within the nine hours before blood draw. Blood is taken in 4.5 ml portions in Vacutainer No. 6462S silicone-coated tubes or equivalent containing 0.5 ml of 3.8% trisodium citrate. Usually six or eight portions of 4.5 ml are drawn from each volunteer. The blood collected from three or four volunteers is pooled prior to centrifugation. […]
as §3
as §2, with “aggregations. Values for drug test aggregations are expressed as "precent of control" and are plotted versus drug concentration on semilog paper.” for “aggregations.”

CCNC(=O)[C@H]1O[C@@H](n2cnc3c(N[C@H](C)Cc4ccccc4)ncnc32)[C@H](O)[C@@H]1O [Example 1, (R)-N-6-[(2-phenyl-1-methyl)ethyl]-adenosine-5'-ethylcarboxamide]
IC50 [1]: 200 nM
IC50 [2]: 0.7 nM
IC50 [3]: 50 nM
